According to US8592456B2 (4SC Discovery GmbH, priority 2011, dated 2013):
Where two headings read alike, the source gives them in different places.

Tested on: PBMC (T cell proliferation)
Assay: T cell proliferation assay, PHA-stimulated human PBMC (BrdU ELISA)
Type: cell-based
Conditions: 48 hours, BrdU
Method in brief: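 Healthy-donor human PBMC, Ficoll-isolated, seeded 1×10^5 cells/well in RPMI1640 with 10% dialyzed FCS, stimulated with 2 μg/ml PHA alongside test compound. Proliferation read after 48 hours by BrdU ELISA.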

[1] = human PBMC, 2 μg/ml PHA, read-out: D: IC50 (Tcell proliferation)
[2] = PHA-stimulated human PBMC, column D, activity classes 1-4, read-out: IC50 (Tcell proliferation)

Row | SMILES | IC50 [1] | IC50 [2]
1 | CCOC(=O)c1c(-c2ccc(Cl)cc2Cl)noc1-c1cnn(-c2cccc(Cl)c2)c1C(F)(F)F [Example B-46, ethyl 5-(1-(3-chlorophenyl)-5-(trifluoromethyl)-1H-pyrazol-4-yl)-3-(2,4-dichlorophenyl)-isoxazole-4-carboxylate] | 0.1 to 1 µM | 
2 | CCOC(=O)c1c(-c2onc(-c3c(F)cccc3Cl)c2C(=O)OC)cnn1-c1ccc(F)cc1F [Example 35, methyl 3-(2-chloro-6-fluorophenyl)-5-(1-(2,4-difluorophenyl)-5-(ethoxycarbonyl)-1H-pyrazol-4-yl)isoxazole-4-carboxylate] | 0.1 to 1 µM | 
3 | Fc1cccc(-n2ncc(-c3onc(-c4c(F)cccc4Cl)c3-c3ccsc3)c2C(F)(F)F)c1 [Example I-16, 3-(2-chloro-6-fluorophenyl)-5-(1-(3-fluorophenyl)-5-(trifluoromethyl)-1H-pyrazol-4-yl)-4-(thiophen-3-yl)isoxazole] |  | < 0.01 µM
4 | CON(C)C(=O)c1c(-c2c(F)cccc2Cl)noc1-c1cnn(-c2ccncc2)c1C(F)(F)F [Example B-59, 3-(2-chloro-6-fluorophenyl)-N-methoxy-N-methyl-5-(1-(pyridin-4-yl)-5-(trifluoromethyl)-1H-pyrazol-4-yl)isoxazole-4-carboxamide] | 1 to 10 µM | 
5 | COC(=O)c1c(-c2ccccc2)noc1-c1cnn(-c2ccc(OC(F)(F)F)cc2)c1C(F)(F)F [Example 74, methyl 3-phenyl-5-(1-(4-(trifluoromethoxy)phenyl)-5-(trifluoromethyl)-1H-pyrazol-4-yl)isoxazole-4-carboxylate] | 1 to 10 µM | 
6 | COC(=O)c1c(-c2ccccc2Cl)noc1-c1cnn(-c2cccc(Cl)c2)c1C(F)(F)F [Example B-71, methyl 3-(2-chlorophenyl)-5-(1-(3-chlorophenyl)-5-(trifluoromethyl)-1H-pyrazol-4-yl)isoxazole-4-carboxylate] | < 0.01 µM | 
7 | CCOC(=O)c1c(-c2c(F)cccc2Cl)noc1-c1cnn(-c2ccccc2C#N)c1C(F)(F)F [Example B-44, ethyl 3-(2-chloro-6-fluorophenyl)-5-(1-(2-cyanophenyl)-5-(trifluoromethyl)-1H-pyrazol-4-yl)-isoxazole-4-carboxylate] | 1 to 10 µM | 
8 | COC(=O)c1c(-c2c(F)cccc2Cl)noc1-c1cnn(-c2cccc(NC(C)=O)c2)c1C(F)(F)F [Example B-89, 5-(1-(3-acetamidophenyl)-5-(trifluoromethyl)-1H-pyrazol-4-yl)-3-(2-chloro-6-fluorophenyl)isoxazole-4-carboxylate] | 0.1 to 1 µM | 
9 | COc1cccc(Cl)c1-c1noc(-c2cnn(-c3cccnc3)c2C(F)(F)F)c1-c1cnco1 [IB-31, 3-(2-chloro-6-methoxyphenyl)-4-(oxazol-5-yl)-5-(1-(pyridin-3-yl)-5-(trifluoromethyl)-1H-pyrazol-4-yl)isoxazole] |  | 1 to 10 µM
10 | CNC(=S)c1c(-c2c(F)cccc2Cl)noc1-c1cnn(-c2cccc(F)c2)c1C(F)(F)F [Example 122, 3-(2-chloro-6-fluorophenyl)-5-(1-(3-fluorophenyl)-5-(trifluoromethyl)-1H-pyrazol-4-yl)-N-methylisoxazole-4-carbothioamide] | 0.1 to 1 µM | 
11 | COC(=O)c1c(-c2c(F)cccc2Cl)noc1-c1cnn(-c2ccccc2F)c1C(F)(F)F [Example 1, methyl 3-(2-chloro-6-fluorophenyl)-5-(1-(2-fluorophenyl)-5-(trifluoromethyl)-1H-pyrazol-4-yl)isoxazole-4-carboxylate] | 0.01 to 0.1 µM | 
12 | COC(=O)c1c(-c2c(F)cccc2Cl)noc1-c1cnn(-c2cccc(F)c2)c1C(F)(F)F [Example 5, methyl 3-(2-chloro-6-fluorophenyl)-5-(1-(3-fluorophenyl)-5-(trifluoromethyl)-1H-pyrazol-4-yl)isoxazole-4-carboxylate] | < 0.01 µM | 
13 | COC(=O)c1c(-c2c(Cl)cccc2Cl)noc1-c1cnn(-c2cccc(F)c2)c1C(F)(F)F [Example 109, methyl 3-(2,6-dichlorophenyl)-5-(1-(3-fluorophenyl)-5-(trifluoromethyl)-1H-pyrazol-4-yl)isoxazole-4-carboxylate] | < 0.01 µM | 
14 | Cc1nnc(-c2c(-c3c(F)cccc3Cl)noc2-c2cnn(-c3cccc(Cl)c3)c2C(F)(F)F)o1 [IB-4, 2-(3-(2-chloro-6-fluorophenyl)-5-(1-(3-chlorophenyl)-5-(trifluoromethyl)-1H-pyrazol-4-yl)isoxazol-4-yl)-5-methyl-1,3,4-oxadiazole] |  | < 0.01 µM
15 | NC(=O)c1c(-c2c(F)cccc2Cl)noc1-c1cnn(-c2cccc(F)c2)c1C(F)(F)F [Example 124, 3-(2-chloro-6-fluorophenyl)-5-(1-(3-fluorophenyl)-5-(trifluoromethyl)-1H-pyrazol-4-yl)isoxazole-4-carboxamide] | 1 to 10 µM | 
16 | COC(=O)c1c(-c2ccccc2)noc1-c1cnn(-c2cccc(Cl)c2)c1C(F)(F)F [Example B-30, methyl 5-(1-(3-chlorophenyl)-5-(trifluoromethyl)-1H-pyrazol-4-yl)-3-phenylisoxazole-4-carboxylate] | 0.1 to 1 µM | 

Row | SMILES | IC50 [1] | IC50 [2]
17 | CCOC(=O)c1c(-c2c(Cl)cncc2Cl)noc1-c1cnn(-c2ccccc2Cl)c1C(F)(F)F [Example B-16, ethyl 5-(1-(2-chlorophenyl)-5-(trifluoromethyl)-1H-pyrazol-4-yl)-3-(3,5-dichloropyridin-4-yl)isoxazole-4-carboxylate] | 1 to 10 µM | 
18 | COC(=O)c1c(-c2c(F)cccc2Cl)noc1-c1cnn(C(C)C)c1C(F)(F)F [Example 66, methyl 3-(2-chloro-6-fluorophenyl)-5-(1-isopropyl-5-(trifluoromethyl)-1H-pyrazol-4-yl)isoxazole-4-carboxylate] | 1 to 10 µM | 
19 | CCOC(=O)c1c(-c2c(F)cccc2Cl)noc1-c1cnn(CCOC)c1C(F)(F)F [Example B-2, ethyl 3-(2-chloro-6-fluorophenyl)-5-(1-(2-methoxyethyl)-5-(trifluoromethyl)-1H-pyrazol-4-yl)isoxazole-4-carboxylate] | 1 to 10 µM | 
20 | CC(=O)Nc1cccc(-n2ncc(-c3onc(-c4c(F)cccc4Cl)c3C(=O)OC(C)C)c2C(F)(F)F)c1 [Example B-78, isopropyl 5-(1-(3-acetamidophenyl)-5-(trifluoromethyl)-1H-pyrazol-4-yl)-3-(2-chloro-6-fluorophenyl)isoxazole-4-carboxylate] | 0.1 to 1 µM | 
21 | CC(C)NS(=O)(=O)c1cccc(-n2ncc(-c3onc(-c4c(F)cccc4Cl)c3C(=O)OC(C)C)c2C(F)(F)F)c1 [Example B-79, isopropyl 3-(2-chloro-6-fluorophenyl)-5-(1-(3-(N-isopropylsulfamoyl)phenyl)-5-(trifluoromethyl)-1H-pyrazol-4-yl)isoxazole-4-carboxylate] | 0.1 to 1 µM | 
22 | CC(C)=NNC(=O)c1c(-c2c(F)cccc2Cl)noc1-c1cnn(-c2cccc(F)c2)c1 [Example B-29, 3-(2-chloro-6-fluorophenyl)-5-(1-(3-fluorophenyl)-1H-pyrazol-4-yl)-N′-(propan-2-ylidene)isoxazole-4-carbohydrazide] | 1 to 10 µM | 
23 | COC(=O)c1c(-c2c(F)cccc2Cl)noc1-c1cnn(-c2ccccc2F)c1 [Example 89, Methyl 3-(2-chloro-6-fluorophenyl)-5-[1-(2-fluorophenyl)-1H-pyrazol-4-yl]isoxazole-4-carboxylate] | 0.1 to 1 µM | 
24 | CCOC(=O)c1c(-c2onc(-c3c(F)cccc3Cl)c2C(=O)OC)cnn1-c1ccccc1F [Example 41, methyl 3-(2-chloro-6-phenyl)-5-(5-(ethoxycarbonyl)-1-(2-fluorophenyl)-1H-pyrazol-4-yl)isoxazole-4-carboxylate] | 0.1 to 1 µM | 
25 | CCOC(=O)c1c(-c2ccncc2F)noc1-c1cnn(-c2cccc(F)c2)c1C(F)(F)F [Example B-14, ethyl 5-(1-(3-fluorophenyl)-5-(trifluoromethyl)-1H-pyrazol-4-yl)-3-(3-fluoropyridin-4-yl)isoxazole-4-carboxylate] | 1 to 10 µM | 
26 | CCOC(=O)c1c(-c2c(F)cccc2Cl)noc1-c1cnn(-c2ccncc2)c1C(F)(F)F [Example B-38, ethyl 3-(2-chloro-6-fluorophenyl)-5-(1-(pyridin-4-yl)-5-(trifluoromethyl)-1H-pyrazol-4-yl)-isoxazole-4-carboxylate] | < 0.01 µM | 
27 | Fc1cccc(Cl)c1-c1noc(-c2cnn(-c3cccc(Cl)c3)c2C(F)(F)F)c1-c1ccco1 [IB-6, 3-(2-chloro-6-fluorophenyl)-5-(1-(3-chlorophenyl)-5-(trifluoromethyl)-1H-pyrazol-4-yl)-4-(furan-2-yl)isoxazole] |  | < 0.01 µM
28 | Cc1nnc(-c2c(-c3c(F)cccc3Cl)noc2-c2cnn(-c3ccccc3Cl)c2C(F)(F)F)s1 [IB-20, 3-(2-chloro-6-fluorophenyl)-5-(1-(2-chlorophenyl)-5-(trifluoromethyl)-1H-pyrazol-4-yl)-4-(5-methyl-1,3,4-thiadiazol-2-yl)isoxazole] |  | 0.1 to 1 µM
29 | Fc1cccc(Cl)c1-c1noc(-c2cnn(-c3cccnc3)c2C(F)(F)F)c1-c1cnco1 [IB-32, 3-(2-chloro-6-fluorophenyl)-4-(oxazol-5-yl)-5-(1-(pyridin-3-yl)-5-(trifluoromethyl)-1H-pyrazol-4-yl)isoxazole] |  | 1 to 10 µM
30 | CCOC(=O)c1c(-c2c(F)cccc2Cl)noc1-c1cnn(-c2cccc([N+](=O)[O-])c2)c1C(F)(F)F [Example B-90, ethyl 3-(2-chloro-6-fluorophenyl)-5-(1-(3-nitrophenyl)-5-(trifluoromethyl)-1H-pyrazol-4-yl)isoxazole-4-carboxylate] | 0.01 to 0.1 µM | 
31 | CCOC(=O)c1c(-c2onc(-c3c(F)cccc3Cl)c2C(=O)OC)cnn1-c1ccccc1 [Example 34, methyl 3-(2-chloro-6-fluorophenyl)-5-(5-(ethoxycarbonyl)-1-phenyl-1Hpyrazol-4-yl)isoxazole-4-carboxylate] | 1 to 10 µM | 
32 | CNC(=O)c1c(-c2c(F)cccc2Cl)noc1-c1cnn(-c2cccnc2)c1C(F)(F)F [Example B-55, 3-(2-chloro-6-fluorophenyl)-N-methyl-5-(1-(pyridin-3-yl)-5-(trifluoromethyl)-1H-pyrazol-4-yl)isoxazole-4-carboxamide] | 1 to 10 µM | 
